In BigSolDB 2.1:

COc1ccc2nc(SCc3ncc(C)c(OC)c3C)[nH]c2c1
solubility (mole fraction)
Conditions	in ethanol	in ethyl acetate
277.65 K	0.0029	0.0117
282.65 K	0.00371	0.0168
288.15 K	0.00483	0.0244
293.15 K	0.00614	0.0337
298.05 K	0.00773	0.0455
302.15 K	0.00935	0.0577
307.65 K	0.012	0.0781
313.15 K	0.0155	0.104
317.65 K	0.0189	0.129
322.15 K	0.0231	0.16
327.65 K	0.0293	0.203
333.15 K	0.0372	0.256
